Measurements: patent publication US20230128402A1 (The Trustees of Princeton University, priority 2020, published 2023)

Assays:
mALDH1a3 = target: T1, mALDH1a3 (Mus musculus, UniProt Q9JHW9); assay: Aldh1a3 enzyme inhibition assay, recombinant mALDH1a3; format: biochemical; settings: resorufin fluorescence, 20° C.
T1 construct: made in house; host or cells: E. coli BL21-DE3, pET-Aldh1a3
T1 sequence (Q9JHW9 1-512): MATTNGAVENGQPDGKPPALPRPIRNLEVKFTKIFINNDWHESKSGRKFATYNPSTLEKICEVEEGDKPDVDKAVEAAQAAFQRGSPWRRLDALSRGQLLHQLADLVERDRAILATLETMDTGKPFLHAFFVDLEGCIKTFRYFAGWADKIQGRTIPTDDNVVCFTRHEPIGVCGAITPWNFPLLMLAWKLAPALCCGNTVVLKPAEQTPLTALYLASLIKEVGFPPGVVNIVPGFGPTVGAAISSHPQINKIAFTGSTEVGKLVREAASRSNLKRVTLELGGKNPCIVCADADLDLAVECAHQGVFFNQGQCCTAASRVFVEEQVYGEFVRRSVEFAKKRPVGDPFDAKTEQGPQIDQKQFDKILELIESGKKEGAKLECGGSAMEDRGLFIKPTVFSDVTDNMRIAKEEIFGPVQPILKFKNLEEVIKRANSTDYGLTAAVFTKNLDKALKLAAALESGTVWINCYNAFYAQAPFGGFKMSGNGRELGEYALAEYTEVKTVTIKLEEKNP
From the text: (§1) Recombinant enzyme and inhibitor added immediately before assay. Reaction rate measured by resorufin fluorescence.

ALDH1a3 = target: T2, ALDH1a3 (Homo sapiens, UniProt P47895); assay: Aldh1a3 enzyme inhibition assay, recombinant hALDH1a3; format: biochemical; design: made in house; host or cells: E. coli BL21-DE3, pET-Aldh1a3; settings: resorufin fluorescence, 20° C.
T2 sequence (P47895 1-512): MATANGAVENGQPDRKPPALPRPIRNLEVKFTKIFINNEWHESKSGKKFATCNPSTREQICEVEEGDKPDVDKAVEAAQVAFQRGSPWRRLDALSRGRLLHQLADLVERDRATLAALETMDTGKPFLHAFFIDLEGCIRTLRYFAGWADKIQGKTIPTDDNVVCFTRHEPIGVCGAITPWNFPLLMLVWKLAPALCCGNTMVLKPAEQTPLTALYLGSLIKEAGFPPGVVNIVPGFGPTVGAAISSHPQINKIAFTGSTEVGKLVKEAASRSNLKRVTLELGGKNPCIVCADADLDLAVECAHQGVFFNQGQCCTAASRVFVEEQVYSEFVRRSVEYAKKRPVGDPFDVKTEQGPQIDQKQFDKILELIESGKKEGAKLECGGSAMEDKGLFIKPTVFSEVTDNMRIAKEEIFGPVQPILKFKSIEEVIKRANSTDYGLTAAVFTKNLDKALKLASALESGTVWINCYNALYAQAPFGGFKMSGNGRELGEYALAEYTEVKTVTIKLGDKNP
From the text: as §1

SMILES | IC50 (mALDH1a3) [nM] | IC50 (ALDH1a3) [nM]
CCCc1cnccc1C(=O)Nc1ccc2c(c1)CCC(=O)N2 [Compound 60, N-(2-oxo-3,4-dihydro-1H-quinolin-6-yl)-3-propyl-pyridine-4-carboxamide] | 250 to 1000 | 100 to 250
CCc1cnccc1C(=O)Nc1ccc2c(c1)CC1(CC1)C(=O)N2 [Compound 61, 3-ethyl-N-(2-oxospiro[1,4-dihydroquinoline-3,1′-cyclopropane]-6-yl)pyridine-4-carboxamide] | 1000 to 5000 | 100 to 250
CCc1cnccc1C(=O)Nc1ccc2c(c1)CC(C)(CC)C(=O)N2 (stereo not shown) [Compound 62, 3-ethyl-N-(3-ethyl-3-methyl-2-oxo-1,4-dihydroquinolin-6-yl)pyridine-4-carboxamide] | > 5000 | 1000 to 5000
CCc1cnccc1C(=O)Nc1ccc2c(c1)CC(C)C(=O)N2 (stereo not shown) [Compound 63, 3-ethyl-N-(3-methyl-2-oxo-3,4-dihydro-1H-quinolin-6-yl)pyridine-4-carboxamide] | 250 to 1000 | 100 to 250
CCc1cnccc1C(=O)Nc1ccc2c(c1)C(C)CC(=O)N2 (stereo not shown) [Compound 64, 3-ethyl-N-(4-methyl-2-oxo-3,4-dihydro-1H-quinolin-6-yl)pyridine-4-carboxamide] | 250 to 1000 | 100 to 250
Cc1cc(C(=O)Nc2ccc3c(c2)CC2(CC2)C(=O)N3)c(Cl)cn1 [Compound 68] | > 5000 | 1000 to 5000
CC(C)=Cc1cnc(C)cc1C(=O)Nc1ccc2c(c1)CC(C)(C)C(=O)N2 [Compound 69] | > 5000 | > 5000
CCc1cnccc1C(=O)Nc1cc2c(cc1Cl)NC(=O)CC2 [Compound 70, N-(7-chloro-2-oxo-3,4-dihydro-1H-quinolin-6-yl)-3-ethyl-pyridine-4-carboxamide] | 250 to 1000 | < 100
C=CCc1cnccc1C(=O)Nc1ccc2c(c1)CCC(=O)N2 [Compound 71, 3-allyl-N-(2-oxo-3,4-dihydro-1H-quinolin-6-yl)pyridine-4-carboxamide] | 1000 to 5000 | 250 to 1000
CCc1cccnc1C(=O)Nc1cc2c(cc1Cl)NC(=O)CC2 [Compound 72, N-(7-chloro-2-oxo-3,4-dihydro-1H-quinolin-6-yl)-3-ethyl-pyridine-2-carboxamide] | 250 to 1000 | 250 to 1000
CCc1c[n+]([O-])ccc1C(=O)Nc1ccc2c(c1)CCC(=O)N2 [Compound 73, 3-ethyl-1-oxido-N-(2-oxo-3,4-dihydro-1H-quinolin-6-yl)pyridin-1-ium-4-carboxamide] | > 5000 | 1000 to 5000
CCc1cc(=O)n(C)cc1C(=O)Nc1ccc2c(c1)CCC(=O)N2 [Compound 76, 4-ethyl-1-methyl-6-oxo-N-(2-oxo-3,4-dihydro-1H-quinolin-6-yl)pyridine-3-carboxamide] | > 5000 | > 5000
CCc1cnc(F)cc1C(=O)Nc1ccc2c(c1)CCC(=O)N2 [Compound 78, 5-ethyl-2-fluoro-N-(2-oxo-3,4-dihydro-1H-quinolin-6-yl)pyridine-4-carboxamide] | 250 to 1000 | < 100
CCc1cnc(C)cc1C(=O)Nc1cc2c(cc1F)NC(=O)CC2 [Compound 79, 5-ethyl-N-(7-fluoro-2-oxo-3,4-dihydro-1H-quinolin-6-yl)-2-methyl-pyridine-4 carboxamide] | 250 to 1000 | 250 to 1000
CCc1cnc(Cl)cc1C(=O)Nc1cc2c(cc1F)NC(=O)CC2 [Compound 80, 2-chloro-5-ethyl-N-(7-fluoro-2-oxo-3,4-dihydro-1H-quinolin-6-yl)pyridine-4-carboxamide] | 250 to 1000 | < 100
O=C1CCc2cc(NC(=O)c3ccncc3CC3CC3)c(F)cc2N1 [Compound 81, 3-(cyclopropylmethyl)-N-(7-fluoro-2-oxo-3,4-dihydro-1H-quinolin-6-yl)pyridine-4-carboxamide] | < 100 | < 100
CCc1cnccc1C(=O)Nc1cc2c(cc1C#N)NC(=O)CC2 [Compound 84, N-(7-cyano-2-oxo-3,4-dihydro-1H-quinolin-6-yl)-3-ethyl-pyridine-4-carboxamide] | 250 to 1000 | 250 to 1000
